This note sets out measurements from patent publication US20130011411A1, “METHODS AND COMPOSITIONS FOR THE DIAGNOSIS, PROGNOSIS, AND TREATMENT OF CANCER” (priority 2010, published 2013).

In the assay the test system is breast cancer cell lines. Description: DACH1 mRNA expression after methylation inhibitor treatment. Format: cell-based. The settings on record: different breast cancer cell lines; data not shown. From the text: DNA methylation is a common mechanism leading to tumor suppressor inactivation.

As for `Nc1ncn([C@H]2C[C@H](O)[C@@H](CO)O2)c(=O)n1` [5-aza-2′-deoxycytidine], the “DACH1 mRNA expression” value is reported as “induced DACH1 mRNA expression”.
